This test addresses T1, F508delCFTR (Homo sapiens, UniProt P13569, DEL508-508).
T1 construct: expressed in transfected cells; host or cells: CFBE41o- human lung derived epithelial cells (CFBE41o-F508delCFTR-HRP), doxycycline-inducible
The test is described as follows: Cell Surface Expression-Horse Radish Peroxidase (CSE-HRP) Assay.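 As to EC50 (with co-corrector): co-corrector chromenyl benzoic acid corrector at 2 or 3 µM.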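 As to Maximum % activity (without co-corrector): % of on-plate positive control chromenyl benzoic acid corrector at 2 or 3 µM.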 The note with it: for Maximum % activity (with co-corrector) / Emax: maximum at any tested concentration; for Emax: read-out: Maximum % activity (without co-corrector). The test is classed as cell-based. An outline of the steps: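 Corrector compounds were given as 8-point 3-fold series from 20 or 30 μM, with or without a 2 μM co-corrector, for 18-24 h at 33 °C. Surface HRP was read by luminol luminescence as % of positive control; variable-Hill-slope sigmoidal fitting gave EC50 from triplicate plates.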

[1] abbreviates: test compound alone, without co-corrector, read-out: EC50 (without co-corrector).
[2] abbreviates: with co-corrector, read-out: EC50 (with co-corrector).

What is called EC50 is the concentration giving half of the maximal effect.

Like-named read-outs stand apart in the source and are kept apart here. A value given as a limit tells only on which side of the number the result lay.

T1 sequence (P13569 with tags, fused parts or gaps DEL508-508): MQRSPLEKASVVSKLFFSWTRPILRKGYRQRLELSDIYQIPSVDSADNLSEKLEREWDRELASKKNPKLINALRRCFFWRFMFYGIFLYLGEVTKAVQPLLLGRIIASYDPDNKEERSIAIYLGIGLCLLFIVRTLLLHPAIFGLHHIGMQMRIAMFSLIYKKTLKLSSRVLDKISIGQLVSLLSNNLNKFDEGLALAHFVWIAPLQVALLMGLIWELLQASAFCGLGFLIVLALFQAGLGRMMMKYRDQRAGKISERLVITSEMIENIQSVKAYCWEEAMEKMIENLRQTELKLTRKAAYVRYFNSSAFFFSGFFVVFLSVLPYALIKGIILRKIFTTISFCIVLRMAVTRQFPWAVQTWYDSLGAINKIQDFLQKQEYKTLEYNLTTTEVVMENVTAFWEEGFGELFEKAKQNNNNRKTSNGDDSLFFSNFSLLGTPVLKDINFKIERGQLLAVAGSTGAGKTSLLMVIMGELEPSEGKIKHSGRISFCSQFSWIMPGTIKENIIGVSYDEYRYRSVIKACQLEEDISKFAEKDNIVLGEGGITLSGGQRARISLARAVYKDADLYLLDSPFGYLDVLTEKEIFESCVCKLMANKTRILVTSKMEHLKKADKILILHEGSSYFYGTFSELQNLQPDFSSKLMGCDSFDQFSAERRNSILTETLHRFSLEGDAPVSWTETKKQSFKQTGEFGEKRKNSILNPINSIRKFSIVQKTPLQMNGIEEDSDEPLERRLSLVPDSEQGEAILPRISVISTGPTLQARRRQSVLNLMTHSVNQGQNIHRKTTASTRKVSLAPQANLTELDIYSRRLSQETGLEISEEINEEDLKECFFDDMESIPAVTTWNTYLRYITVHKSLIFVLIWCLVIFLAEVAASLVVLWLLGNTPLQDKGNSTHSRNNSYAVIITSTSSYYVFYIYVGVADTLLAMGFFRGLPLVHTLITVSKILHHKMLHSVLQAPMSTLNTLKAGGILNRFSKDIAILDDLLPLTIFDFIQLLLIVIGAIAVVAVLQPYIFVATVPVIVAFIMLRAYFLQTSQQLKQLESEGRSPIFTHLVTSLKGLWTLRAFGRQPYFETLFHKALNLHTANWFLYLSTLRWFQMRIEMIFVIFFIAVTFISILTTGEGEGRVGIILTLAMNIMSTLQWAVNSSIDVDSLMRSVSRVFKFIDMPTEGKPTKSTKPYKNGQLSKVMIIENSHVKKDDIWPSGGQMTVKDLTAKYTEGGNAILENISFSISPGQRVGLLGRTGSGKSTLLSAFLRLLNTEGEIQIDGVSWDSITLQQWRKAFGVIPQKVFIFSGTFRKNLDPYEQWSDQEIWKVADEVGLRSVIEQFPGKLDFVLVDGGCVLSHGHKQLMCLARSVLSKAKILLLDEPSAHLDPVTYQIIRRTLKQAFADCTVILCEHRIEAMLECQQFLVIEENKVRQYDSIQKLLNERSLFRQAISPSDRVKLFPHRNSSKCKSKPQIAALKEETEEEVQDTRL

As to `CCOc1ccc(C)cc1C1(C(=O)NS(=O)(=O)c2cccc3nc(C)ccc23)CC1` [Example I-83, 1-(2-ethoxy-5-methylphenyl)-N-(2-methylquinoline-5-sulfonyl)cyclopropane-1-carboxamide], the EC50 runs as follows: under setting [1], under 3 µM; under setting [2], under 3 µM. In addition, the “Maximum % activity (with co-corrector)” value (with co-corrector) is given as “+++ (≥350)”. Also, under “without co-corrector”, the Emax was over 150%.

On to `CCc1ccc(OC)c(C2(C(=O)NS(=O)(=O)c3cccc4nc(C)ccc34)CC2)c1` [Example I-84, 1-(5-ethyl-2-methoxyphenyl)-N-(2-methylquinoline-5-sulfonyl)cyclopropane-1-carboxamide], for which the EC50 runs as follows: under setting [1], under 3 µM; under setting [2], under 3 µM. For the setting “with co-corrector”, the “Maximum % activity (with co-corrector)” value was “+++ (≥350)”. For the setting “without co-corrector”, the Emax is over 150%.

For `CNC1(c2ccc(OC)c(C3(C(=O)NS(=O)(=O)c4cccc5ncccc45)CC3)c2)CC1` [Example I-85, 1-{2-methoxy-5-[1-(methylamino)cyclopropyl]phenyl}-N-(quinoline-5-sulfonyl)cyclopropane-1-carboxamide], the EC50 runs as follows: under setting [1], over 10 µM; under setting [2], 3 to 10 µM. The “Maximum % activity (with co-corrector)” value (with co-corrector) is “++ (≥150 and <350)”. Also, where the note is “without co-corrector”, the Emax was under 50%.

In the case of `COc1cc(C2CCC2)cc(OC)c1C1(C(=O)NS(=O)(=O)c2cccc3[nH]ccc23)CC1` [Example I-86, 1-(4-cyclobutyl-2,6-dimethoxyphenyl)-N-(1H-indole-4-sulfonyl)cyclopropane-1-carboxamide], the EC50 under setting [1] was under 3 µM and the EC50 under setting [2] is under 3 µM. Further, the “Maximum % activity (with co-corrector)” value (with co-corrector) was “+++ (≥350)”. Besides, the Emax (without co-corrector) is over 150%.

On to `Cc1ccc(OC(C)C)c(C2(C(=O)NS(=O)(=O)c3cccc4nc(N)ccc34)CC2)c1` [Example I-87, N-(2-aminoquinoline-5-sulfonyl)-1-{5-methyl-2-[(propan-2-yl)oxy]phenyl}cyclopropane-1-carboxamide], for which the EC50 under setting [1] is under 3 µM and the EC50 under setting [2] is under 3 µM. For the same molecule, the “Maximum % activity (with co-corrector)” value (with co-corrector) was “+++ (≥350)”. Also, the Emax (without co-corrector) was over 150%.

On to `COc1ccc(C2(OC)CCC2)cc1C1(C(=O)NS(=O)(=O)c2cccc3ncccc23)CC1` [Example I-88, 1-[2-methoxy-5-(1-methoxycyclobutyl)phenyl]-N-(quinoline-5-sulfonyl)cyclopropane-1-carboxamide], for which the concentration for a half-maximal effect (EC50) by setting is: under setting [1], 3 to 10 µM; under setting [2], under 3 µM. The “Maximum % activity (with co-corrector)” value (with co-corrector) was “+++ (≥350)”. Besides, under “without co-corrector”, the Emax was over 150%.

Regarding `CCOc1ccc(C)cc1C1(C(=O)NS(=O)(=O)c2cccc3nc(N)ccc23)CC1` [Example I-89, N-(2-aminoquinoline-5-sulfonyl)-1-(2-ethoxy-5-methylphenyl)cyclopropane-1-carboxamide], the EC50 under setting [1] was under 3 µM and the EC50 under setting [2] was under 3 µM. Also, the “Maximum % activity (with co-corrector)” value (with co-corrector) is recorded as “+++ (≥350)”. In addition, the Emax (without co-corrector) is over 150%.

For `COc1ccc(C2COC2)cc1C1(C(=O)NS(=O)(=O)c2cccc3ncccc23)CC1` [Example I-90, 1-[2-methoxy-5-(oxetan-3-yl)phenyl]-N-(quinoline-5-sulfonyl)cyclopropane-1-carboxamide], the EC50 fell in the range of 3 to 10 µM under setting [1] and 3 to 10 µM under setting [2]. Besides, the “Maximum % activity (with co-corrector)” value (with co-corrector) is recorded as “+++ (≥350)”. In addition, the Emax (without co-corrector) fell in the range of 50 to 150%.

For `CCOc1ccc(C)cc1C1(C(=O)NS(=O)(=O)c2cccc3[nH]c(C)cc23)CC1` [Example I-91, 1-(2-ethoxy-5-methylphenyl)-N-(2-methyl-1H-indole-4-sulfonyl)cyclopropane-1-carboxamide], the EC50 under setting [1] was under 3 µM and the EC50 under setting [2] is under 3 µM. Further, the “Maximum % activity (with co-corrector)” value (with co-corrector) is “+++ (≥350)”. Moreover, the Emax (without co-corrector) is over 150%.

In the case of `COc1cc(C2(C(=O)NS(=O)(=O)c3cccc4nc(N)ccc34)CC2)c(OCC(C)C)cn1` [Example I-92, N-(2-aminoquinoline-5-sulfonyl)-1-[2-methoxy-5-(2-methylpropoxy)pyridin-4-yl]cyclopropane-1-carboxamide], the EC50 is, setting by setting: under setting [1], under 3 µM; under setting [2], under 3 µM. The “Maximum % activity (with co-corrector)” value (with co-corrector) is “+++ (≥350)”. In addition, the Emax (without co-corrector) is over 150%.

With `Cc1ccc(OC2COC2)c(C2(C(=O)NS(=O)(=O)c3cccc4ncccc34)CC2)c1` [Example I-93, 1-{5-methyl-2-[(oxetan-3-yl)oxy]phenyl}-N-(quinoline-5-sulfonyl)cyclopropane-1-carboxamide], the EC50 under setting [1] was in the range of 3 to 10 µM and the concentration giving a half-maximal response (EC50) under setting [2] is under 3 µM. Besides, the “Maximum % activity (with co-corrector)” value (with co-corrector) is reported as “+++ (≥350)”. Besides, for the setting “without co-corrector”, the Emax was over 150%.

Turning to `CCc1cnc(OCC(C)C)c(C2(C(=O)NS(=O)(=O)c3cccc4[nH]ncc34)CC2)c1` [Example I-94, 1-[5-ethyl-2-(2-methylpropoxy)pyridin-3-yl]-N-(1H-indazole-4-sulfonyl)cyclopropane-1-carboxamide], the EC50 is under 3 µM under setting [1] and under 3 µM under setting [2]. For the same molecule, the “Maximum % activity (with co-corrector)” value (with co-corrector) is recorded as “+++ (≥350)”. For the same molecule, the Emax (without co-corrector) was over 150%.

On to `COC[C@@H](C)Oc1ccc(C)cc1C1(C(=O)NS(=O)(=O)c2cccc3ncccc23)CC1` [Example I-95, 1-(2-{[(2R)-1-methoxypropan-2-yl]oxy}-5-methylphenyl)-N-(quinoline-5-sulfonyl)cyclopropane-1-carboxamide], for which the EC50 by setting is: under setting [1], under 3 µM; under setting [2], under 3 µM. Besides, the “Maximum % activity (with co-corrector)” value (with co-corrector) is reported as “+++ (≥350)”. Further, the Emax (without co-corrector) is over 150%.

Take `Cc1cnc(OCC(C)C)c(C2(C(=O)NS(=O)(=O)c3cccc4nc(N)ccc34)CC2)c1` [Example I-96, N-(2-aminoquinoline-5-sulfonyl)-1-[5-methyl-2-(2-methylpropoxy)pyridin-3-yl]cyclopropane-1-carboxamide]: the EC50 runs as follows: under setting [1], under 3 µM; under setting [2], under 3 µM. Further, the “Maximum % activity (with co-corrector)” value (with co-corrector) is “+++ (≥350)”. For the same molecule, under “without co-corrector”, the Emax was over 150%.

In the case of `Cc1cnc(OC(C)C)c(C2(C(=O)NS(=O)(=O)c3cccc4nc(N)ccc34)CC2)c1` [Example I-97, N-(2-aminoquinoline-5-sulfonyl)-1-{5-methyl-2-[(propan-2-yl)oxy]pyridin-3-yl}cyclopropane-1-carboxamide], the EC50 is under 3 µM under setting [1] and under 3 µM under setting [2]. The “Maximum % activity (with co-corrector)” value (with co-corrector) is reported as “+++ (≥350)”. Further, the Emax (without co-corrector) was over 150%.

`CCc1cnc(OCC(C)C)c(C2(C(=O)NS(=O)(=O)c3cccc4nc(N)ccc34)CC2)c1` [Example I-98, N-(2-aminoquinoline-5-sulfonyl)-1-[5-ethyl-2-(2-methylpropoxy)pyridin-3-yl]cyclopropane-1-carboxamide]: the EC50 under setting [1] is under 3 µM and the EC50 under setting [2] was under 3 µM. Besides, for the setting “with co-corrector”, the “Maximum % activity (with co-corrector)” value is listed as “+++ (≥350)”. In addition, under “without co-corrector”, the Emax is over 150%.

In the case of `CCOc1ccc(C(C)(C)OCC)cc1C1(C(=O)NS(=O)(=O)c2cccc3ncccc23)CC1` [Example I-99, 1-[2-ethoxy-5-(2-ethoxypropan-2-yl)phenyl]-N-(quinoline-5-sulfonyl)cyclopropane-1-carboxamide], the EC50 was under 3 µM under setting [1] and under 3 µM under setting [2]. In addition, under “with co-corrector”, the “Maximum % activity (with co-corrector)” value is on record as “+++ (≥350)”. Also, the Emax (without co-corrector) is over 150%.

As for `Cc1ccc(OC(F)F)c(C2(C(=O)NS(=O)(=O)c3cccc4ncccc34)CC2)c1` [Example I-100, 1-[2-(difluoromethoxy)-5-methylphenyl]-N-(quinoline-5-sulfonyl)cyclopropane-1-carboxamide], the EC50 is under 3 µM under setting [1] and under 3 µM under setting [2]. Moreover, the “Maximum % activity (with co-corrector)” value (with co-corrector) was “+++ (≥350)”. Where the note is “without co-corrector”, the Emax was over 150%.

In the case of `CCOc1ccc(C(C)(C)COC)cc1C1(C(=O)NS(=O)(=O)c2cccc3ncccc23)CC1` [Example I-101, 1-[2-ethoxy-5-(1-methoxy-2-methylpropan-2-yl)phenyl]-N-(quinoline-5-sulfonyl)cyclopropane-1-carboxamide], the EC50 runs as follows: under setting [1], under 3 µM; under setting [2], under 3 µM. Also, the “Maximum % activity (with co-corrector)” value (with co-corrector) is recorded as “+++ (≥350)”. In addition, the Emax (without co-corrector) was over 150%.

With `CCOc1ccc(C2(OC)CCC2)cc1C1(C(=O)NS(=O)(=O)c2cccc3ncccc23)CC1` [Example I-102, 1-[2-ethoxy-5-(1-methoxycyclobutyl)phenyl]-N-(quinoline-5-sulfonyl)cyclopropane-1-carboxamide], the EC50 was under 3 µM under setting [1] and under 3 µM under setting [2]. Moreover, the “Maximum % activity (with co-corrector)” value (with co-corrector) is on record as “+++ (≥350)”. In addition, the Emax (without co-corrector) is over 150%.

For `CCOc1ccc(C(C)(C)OCC)cc1C1(C(=O)NS(=O)(=O)c2cccc3nc(C)ccc23)CC1` [Example I-103, 1-[2-ethoxy-5-(2-ethoxypropan-2-yl)phenyl]-N-(2-methylquinoline-5-sulfonyl)cyclopropane-1-carboxamide], the EC50 was under 3 µM under setting [1] and under 3 µM under setting [2]. The “Maximum % activity (with co-corrector)” value (with co-corrector) is on record as “+++ (≥350)”. Further, the Emax (without co-corrector) was over 150%.

Take `CCOc1ccc(C(C)(C)OC)cc1C1(C(=O)NS(=O)(=O)c2cccc3nc(C)ccc23)CC1` [Example I-104, 1-[2-ethoxy-5-(2-methoxypropan-2-yl)phenyl]-N-(2-methylquinoline-5-sulfonyl)cyclopropane-1-carboxamide]: the 50% effective concentration (EC50) under setting [1] was under 3 µM and the EC50 under setting [2] is under 3 µM. The “Maximum % activity (with co-corrector)” value (with co-corrector) was “+++ (≥350)”. The Emax (without co-corrector) was over 150%.

These data come from patent US10829473B2, “Modulators of the cystic fibrosis transmembrane conductance regulator protein and methods of use” (AbbVie Overseas S.Á.R.L., priority 2017, dated 2020).
